The series in a line: Caco-2 permeability assay, permeability coefficient Papp (Examples 1 and 2). The class given is in vitro ADME, human. From the text:
The Caco-2 cell line is a continuous cell line of heterogeneous human epithelial colorectal adenocarcinoma cells, which when cultured under specific conditions, become differentiated and polarized such that their phenotype, morphologically and functionally, resembles the enterocytes lining the small intestine. Caco-2 cells express tight junctions, microvilli, and a number of enzymes and transporters that are characteristic of such enterocytes. Caco-2 cells are most commonly used as a tight junction monolayer that provides a physical and biochemical barrier to the passage of drugs and thus serves as an in vitro model of the human small intestinal mucosa to predict the absorption of orally administered drugs. Caco-2 permeability assays were performed by Cyprotex US, LLC (MA, USA) to assess the efficacy of different permeation enhancers. Caco-2 cells were grown on Transwell filters until a transepithelial electric resistance of ˜1000 ohms/cm^2 was achieved. The cells were incubated for three hours with media containing test samples on the apical (top) side of the cell layer, and with blank media on the basolateral (lower) side of the cell layer. Media from the apical and basolateral sides was collected separately after three hours and evaluated for the amount of peptide present on each side. Table 2 gives the permeability coefficient (Papp) of the various test samples, which include the SEQ ID NO:3 GLP-1 peptide in the presence of different excipients.
The apparent permeability coefficients (Papp) of all polypeptides were calculated using the following equation: Papp=dQ/dt×1/A C0
Where dQ/dt is the amount of solutes transported across the Caco-2 barrier in time dt, C0 is the solute concentration in the apical compartment at time zero, and A is the cross-sectional area of the epithelium in contact with apical solution.
The next Caco-2 study was performed to evaluate the ability of additional excipients to enhance the permeability of the SEQ ID NO:3 peptide across tight junction cell layers.
A general note: Passage across Caco-2 layers is used to estimate intestinal permeability.

Consider `CC[C@H](C)[C@H](NC(=O)C(C)(Cc1ccccc1)NC(=O)[C@H](CCC(=O)O)NC(=O)[C@H](CCCCNC(=O)COCCOCCNC(=O)COCCOCCNC(=O)CC[C@H](NC(=O)CCCCCCCCCCCCCCCCC(=O)O)C(=O)O)NC(=O)[C@H](C)NC(=O)[C@H](C)NC(=O)[C@H](CCC(=O)O)NC(=O)CNC(=O)[C@H](CCC(=O)O)NC(=O)[C@H](CC(C)C)NC(=O)C(C)(Cc1ccccc1)NC(=O)[C@H](CO)NC(=O)C(C)(CO)NC(=O)[C@@H](NC(=O)[C@H](CC(=O)O)NC(=O)[C@H](CO)NC(=O)[C@@H](NC(=O)C(C)(Cc1ccccc1)NC(=O)[C@H](CO)NC(=O)CNC(=O)[C@H](CCC(=O)O)NC(=O)C(C)(C)NC(=O)[C@@H](N)Cc1c[nH]cn1)[C@@H](C)O)C(C)C)C(=O)N[C@@H](C)C(=O)NC(C)(Cc1ccccc1)C(=O)N[C@H](C(=O)N[C@H](C(=O)NC(C)(CCCCN)C(=O)NCC(=O)NCC(N)=O)C(C)C)C(C)C` (stereo partly drawn) [SEQ ID NO: 3, Free-H-[AIB]-EGS-[αMePhe]-TSDV-[αMeSer]-S-[αMePhe]-LEGEAAK[(PEG2)2-γE-Stearate]-E-[αMePhe]-IA-[αMePhe]-VV-[αMeLys]-GG-amide], for which the apical-to-basolateral permeability (Papp A→B) (as a rule, how fast a substance crosses the layer from the apical side) turned out to be 0.09 ×10⁻⁶ cm/s (Caco-2, Example 1, 0.05 mg/mL peptide, ⅛ Lauroglycol FCC:Kolliphor EL:Transcutol HP 5:4:3 (w/w)); 0.05 ×10⁻⁶ cm/s (Caco-2, Example 1, 0.1 mg/mL peptide, 0.5 mg/mL Tetradecylmaltoside); 0.88 ×10⁻⁶ cm/s (Caco-2, Example 1, 0.1 mg/mL peptide, 2.5 mg/mL Tetradecylmaltoside); 6.2 ×10⁻⁶ cm/s (Caco-2, Example 1, 0.1 mg/mL peptide, 5.0 mg/mL Sodium Chenodeoxycholate); 0.4 ×10⁻⁶ cm/s (Caco-2, Example 1, 0.1 mg/mL peptide, 10.0 mg/mL Sodium Decanoate); 7.8 ×10⁻⁶ cm/s (Caco-2, Example 1, 0.1 mg/mL peptide, 12.5 mg/mL Tetradecylmaltoside). This compound also returned a Papp A→B (Caco-2, Example 1, 0.1 mg/mL peptide, 25.0 mg/mL Sodium Chenodeoxycholate) of 10.3 ×10⁻⁶ cm/s; an apical-to-basolateral permeability (Papp A→B) (Caco-2, Example 1, 0.1 mg/mL peptide, ¼ Lauroglycol FCC:Kolliphor EL:Transcutol HP 5:4:3 (w/w)) of 0.05 ×10⁻⁶ cm/s; a Papp A→B (Caco-2, Example 2, 0.1 mg/mL peptide, 12.5 mg/mL Dodecylmaltoside) of 6.4 ×10⁻⁶ cm/s; an apparent permeability from apical to basolateral (Papp A→B) (Caco-2, Example 2, 0.1 mg/mL peptide, 12.5 mg/mL Tetradecylmaltoside) of 1.4 ×10⁻⁶ cm/s; a Papp A→B (Caco-2, Example 2, 0.1 mg/mL peptide, 25.0 mg/mL Sodium Chenodeoxycholate, 12.5 mg/mL Propyl gallate) of 43.1 ×10⁻⁶ cm/s.

For the origin of these results see US11173124B2, “Oral delivery of GLP-1 peptide analogs” (MEDIMMUNE LIMITED, priority 2017, dated 2021).
